Measurements: patent publication US20260158014A1, “METHODS OF ADMINISTERING VOXELOTOR” (Global Blood Therapeutics, Inc., priority 2021, published 2026)
Entries after “also recorded” stand apart in the source; their conditions may differ.

Tests used:
[1] = tested on: CYP3A4, CYP3A5, CYP2B6, CYP2C19, CYP2C9, UGT1A1, and UGT1A9; assay: Metabolism, in vitro and in vivo studies; assay type: in vitro ADME
[2] = tested on: bacterial reverse mutation; assay: Reverse mutation bacterial (Ames) test; assay type: cell-based
BSEP = BSEP (Homo sapiens, UniProt O95342); assay: In vitro transporter study; assay type: in vitro ADME
pregnant rats = assay: Embryo-fetal development study in rats; assay type: in vivo, rat; conditions: oral 15, 50, 250 mg/kg/day, gestation days 7 through 17
Experimental: In embryo-fetal development studies, voxelotor was administered orally to pregnant rats at 15, 50, and 250 mg/kg/day (gestation days 7 through 17) and rabbits at 25, 75, and 150 mg/kg/day (gestation days 7 through 19) through organogenesis.

QT interval = assay: Cardiac electrophysiology (QT interval); assay type: in vivo; conditions: plasma concentrations approximately 2-fold above therapeutic concentrations
rat = assay: Rat Comet assay; conditions: in vivo
[3] = Probe-substrate DDI study: voxelotor exposure and safety in healthy subjects; assay type: in vivo, human
Experimental: The effect of voxelotor on the pharmacokinetics (PK) of a single dose of caffeine, warfarin sodium, omeprazole, and midazolam hydrochloride, which are probe substrates for cytochrome P450 (CYP)1A2, CYP2C9, CYP2C19, and CYP3A4, respectively, were studied in healthy subjects. During Period 1, subjects received a single dose of caffeine 100 mg, warfarin sodium 10 mg+vitamin K 10 mg, omeprazole 20 mg, and midazolam hydrochloride 2 mg on Day 1. During Period 2, subjects received voxelotor 900 mg QD on Days 1 and 2 followed by 600 mg QD on Day 3, a single dose of caffeine 100 mg, warfarin sodium 10 mg+vitamin K 10 mg, omeprazole 20 mg, and midazolam hydrochloride 2 mg on Day 4, and voxelotor 600 mg QD on Days 4 through 7.
Whole blood and plasma concentrations of voxelotor and plasma concentrations of caffeine, paraxanthine, S-warfarin, omeprazole, 5-hydroxyomeprazole, midazolam, and 1-hydroxymidazolam were determined using validated assays.

[4] = Tablet for oral suspension versus oral tablet exposure in healthy subjects; assay type: in vivo, human
CYP2D6 = target: T1, CYP2D6 (Homo sapiens, UniProt P10635); assay: Effect of voxelotor on CYP450 enzymes in vivo: CYP2D6
T1 construct: endogenous in cells; host or cells: human subjects (in vivo)

OAT1 = OAT1 (Homo sapiens, UniProt Q4U2R8); assay: In vitro transporter study; assay type: in vitro ADME
patients with SCD = assay: HOPE Phase 3 trial: efficacy; assay type: in vivo, human
Experimental: The efficacy and safety of OXBRYTA in SCD was evaluated in HOPE, a Phase 3 randomized, double-blind, placebo-controlled, multicenter trial [NCT 03036813]. In this study, 274 patients were randomized to daily oral administration of OXBRYTA 1,500 mg (N=90), OXBRYTA 900 mg (N=92), or placebo (N=92). Patients were included if they had from 1 to 10 vaso-occlusive crisis (VOC) events within 12 months prior to enrollment and baseline hemoglobin (Hb) ≥5.5 to ≤10.5 g/dL. Eligible patients on stable doses of hydroxyurea for at least 90 days were allowed to continue hydroxyurea therapy throughout the study. Randomization was stratified by patients already receiving hydroxyurea (yes, no), geographic region (North America, Europe, Other), and age (12 to <17 years, 18 to 65 years). The trial excluded patients who received red blood cell (RBC) transfusions within 60 days and erythropoietin within 28 days of enrollment, had renal insufficiency, uncontrolled liver disease, were pregnant, or lactating.
The majority of patients had HbSS or HbS/beta^0-thalassemia genotype (90%) and were receiving background hydroxyurea therapy (65%). The median age was 24 years (range: 12 to 64 years); 46 (17%) patients were 12 to <17 years. Median baseline Hb was 8.5 g/dL (5.9 to 10.8 g/dL). One hundred and fifteen (42%) had 1 VOC event and 159 (58%) had 2 to 10 events within 12 months prior to enrollment. In the OXBRYTA 1,500 mg group, 63 (70%) patients completed the study through Week 72.
Efficacy was based on Hb response rate defined as a Hb increase of >1 g/dL from baseline to Week 24 in patients treated with OXBRYTA 1,500 mg versus placebo. […] No outlier subgroups were observed. The distribution of Hb change from baseline for individual patients completing 24 weeks of treatment with OXBRYTA 1,500 mg or placebo is depicted in FIG. 2.
Additional efficacy evaluation included change in Hb and percent change in indirect bilirubin and percent reticulocyte count from baseline to Week 24 (Table 15).

hemoglobin S (HbS) = hemoglobin S (HbS) (Homo sapiens, UniProt P68871+P69905, E7V); assay: HbS binding and polymerization inhibition
[5] = Voxelotor in milk of lactating rats; assay type: in vivo, rat
P-gp = P-gp (Homo sapiens, UniProt P08183); assay: In vitro transporter study; assay type: in vitro ADME
[6] = tested on: patients with SCD aged 4 to 11 years; assay: Open-label Phase 2 trial (part C): safety assessment (TEAEs)
Hb = assay: Pharmacodynamics: Hb oxygen affinity (p50) and clinical measures of hemolysis; assay type: in vivo
[7] = 4 to 11 years, n=45, listed as OXBRYTA

In the case of CC(C)n1nccc1-c1ncccc1COc1cccc(O)c1C=O [voxelotor, 2-hydroxy-6-((2-(1-isopropyl-1H-pyrazol-5-yl)pyridin-3-yl)methoxy)benzaldehyde], the enzymes mediating metabolism [1] is reported as “CYP3A4, CYP3A5, CYP2B6, CYP2C19, CYP2C9, UGT1A1, and UGT1A9”, the “genotoxicity, Ames test” value [2] is reported as “not genotoxic” and the BSEP inhibition (BSEP) is reported as “not an inhibitor”. For the same compound, the “substrate of BSEP” value (BSEP) was “not a substrate”, the developmental outcome (pregnant rats) was “no adverse developmental effects; also recorded: no evidence of adverse developmental outcomes” and the QT interval prolongation (QT interval) was “does not prolong QT interval to any clinically relevant extent”. The “genotoxicity, rat Comet assay” value (rat) was “not genotoxic”, the “safety and tolerability alone and with probe substrates” value [3] was “safe and well tolerated” and the “exposures, tablet for oral suspension dispersed in water vs oral tablet swallowed whole” value [4] was “comparable”. The “CYP2D6 inhibition in vivo” value (CYP2D6) was “not”, the OAT1 inhibition (OAT1) was “not an inhibitor” and the “adjusted mean change from baseline to Week 24 in hemoglobin” value (patients with SCD; 1,500 mg QD, N=90) was 1.1 g/dL. The “adjusted mean percent change from baseline to Week 24 in indirect bilirubin” value (patients with SCD; 1,500 mg QD, N=90) was −29.1%, the “adjusted mean percent change from baseline to Week 24 in percent reticulocyte count” value (patients with SCD; 1,500 mg QD, N=90) was −18.0% and the “Hb response rate (Hb increase >1 g/dL from baseline to Week 24)” value (patients with SCD; 1,500 mg once daily, 46/90, adults and pediatric patients 12 years and older) was 51%. For the same compound, the HbS polymerization (hemoglobin S (HbS)) was “dose-dependent inhibition”, the presence in milk ([5]; lactating rats) was “detected in milk” and the “plasma concentrations relative to concentration in milk” value ([5]; rats) was “higher”. The P-gp inhibition (P-gp) was “not an inhibitor”, the “substrate of P-gp” value (P-gp) was “not a substrate” and the “Any drug-related TEAE” value ([6]; 4-11 years, n=45, week 24) was 22 (48.9) n (%). For the same compound, the “Drug-related AE: Abdominal pain” value ([6]; 4-11 years, n=45, week 24) was 4 (8.9) n (%), the “Drug-related AE: Diarrhea” value ([6]; 4-11 years, n=45, week 24) was 5 (11.1) n (%) and the “Drug-related AE: Headache” value ([6]; 4-11 years, n=45, week 24) was 2 (4.4) n (%). The “Drug-related AE: Hypersplenism” value ([6]; 4-11 years, n=45, week 24) was 2 (4.4) n (%), the “Drug-related AE: Pyrexia” value ([6]; 4-11 years, n=45, week 24) was 2 (4.4) n (%) and the “Drug-related AE: Rash” value ([6]; 4-11 years, n=45, week 24) was 5 (11.1) n (%). The “Drug-related AE: Transaminases increased” value ([6]; 4-11 years, n=45, week 24) was 4 (8.9) n (%), the “Drug-related AE: Vomiting” value ([6]; 4-11 years, n=45, week 24) was 5 (11.1) n (%) and the “tolerability of weight-based dosing” value ([6]; 4 to 11 years, median exposure 43.3 weeks) was “well tolerated”. For the same compound, the deaths ([6]; 4 to 11 years, n=45) was “no deaths”, the “drug-related TEAE diarrhea, patients” value ([6]; 4 to 11 years, n=45) was 11% and the “drug-related TEAE rash, patients” value ([6]; 4 to 11 years, n=45) was 11%. The “drug-related TEAE vomiting, patients” value ([6]; 4 to 11 years, n=45) was 11%, the “pyrexia, patients (non-SCD related TEAE / adverse reaction)” value ([6]; 4 to 11 years, n=45) was 35.6% and the “rash, patients (non-SCD related TEAE / adverse reaction)” value ([6]; 4 to 11 years, n=45) was 20%. The “vomiting, patients (non-SCD related TEAE / adverse reaction)” value ([6]; 4 to 11 years, n=45) was 33.3%, the “pyrexia, patients (non-SCD related TEAE / adverse reaction)” value [6, 7] was 36% and the “vomiting, patients (non-SCD related TEAE / adverse reaction)” value [6, 7] was 33%. For the same compound, the “abdominal pain, patients (adverse reaction)” value ([6]; 4 to <12 years, n=45) was 18%, the “diarrhea, patients (adverse reaction)” value ([6]; 4 to <12 years, n=45) was 18% and the “headache, patients (adverse reaction)” value ([6]; 4 to <12 years, n=45) was 18%. For the same compound, the “patients who discontinued voxelotor due to adverse events” value ([6]; of 45 patients, 2 drug-related, 2 unrelated) was 4 patients, the “clinical measures of hemolysis (indirect bilirubin and % reticulocytes)” value (Hb; in vivo) was “dose-dependent reduction” and the “Hb oxygen affinity as determined by change in p50” value (Hb; linearly correlated with voxelotor exposure) was “dose-dependent increase”.
